Test results reported in article PMC9186351, “Discovery of N-quinazolinone-4-hydroxy-2-quinolone-3-carboxamides as DNA gyrase B-targeted antibacterial agents” (Journal of Enzyme Inhibition and Medicinal Chemistry, 2022).
Values after ≈ are worked out from the molar mass of the structure shown. Like-named read-outs stand apart in the source and are kept apart here.

Assays:
S. aureus DNA gyrase = conditions: Figure 1; cited from earlier work
[1] = tested on: vancomycin intermediate resistant S. aureus (VISA); assay: MIC by broth microdilution, VISA strains; type: cell-based
Description: (§1) All of the bacterial strains used in this study were obtained from the Collection Centre of Pathogen Microorganism of Chinese Academy of Medical Sciences (CAMS-CCPM-A) in China. All of the isolates were stored at −80 °C and streaked on tryptic soy agar (TSA) plates to obtain overnight cultures. The MICs of the test compounds were determined by the broth microdilution method in accordance with the Clinical and Laboratory Standards Institute (CLSI) guidelines.[20] Cation-adjusted Mueller-Hinton broth (CAMHB) was used as the growth medium for MIC assays. Briefly, 100 μL of serially diluted compounds (starting concentrations were 64 μg/mL) in CAMH broth were added to the wells of 96-well microtiter plates. Then, 10 µL of 5 × 10^6 CFU/mL bacterial culture was added to each well. […] The MIC was defined as the lowest concentration of a compound that inhibited visual growth of the bacteria. Vancomycin was set as the positive control for this assay.

MRSA/VISA strains = assay: MIC by broth microdilution, MRSA and VISA panel; type: cell-based, S. aureus; conditions: Staphylococcus aureus, ATCC 33591 / ATCC 43300 / ATCC 700699 / MRSA / VISA, read-out: MICs for MRSA and VISA strains
Description: as §1

[2] = tested on: methicillin-sensitive S. aureus (MSSA); assay: MIC by broth microdilution, MSSA isolates; type: cell-based; conditions: Staphylococcus aureus
Description: as §1

[3] = tested on: methicillin-resistant S. aureus (MRSA); assay: MIC by broth microdilution, MRSA strains; type: cell-based; conditions: Staphylococcus aureus
Description: as §1

[4] = Cytotoxicity, SRB assay, HepG2; type: cell-based, human; conditions: human, HepG2 cells, read-out: CC50 for HepG2 cells (positive control)
Description: (§2) Cytotoxicity in terms of CC50 was determined by the SRB assay according to the protocol described in our previous publication.[16] Briefly, human HUVECs or HepG2 cells were seeded in the wells of 96-well plates at a concentration of 1 × 10^5 cells per well and incubated at 37 °C for 24 h. […] The cells were fixed with 10% trichloroacetic acid (w/v) at 4 °C for 1 h, washed five times with distilled water, and stained with 0.4% SRB solution at room temperature for another 20 min. The cells were then washed five times with 1% acetic acid and air-dried. The protein-bound dye was dissolved in 10 mM Tris-base solution and shaken for 5 min. The optical density (OD) was measured at 540 nm using a microplate reader to estimate the cell viability (%). With the viability values (%) of the cells treated by the compound at different concentrations as input, the CC50 value was determined by the non-linear regression with normalised dose-response fit implemented in GraphPad Prism version 5 software (GraphPad Software Inc., La Jolla, CA). The experiment was performed in duplicate, and paclitaxel was used as the positive drug for this assay.

[5] = Cytotoxicity, SRB assay, HUVEC; type: cell-based, human; conditions: human, HUVEC cells, read-out: CC50 for HUVECs (positive control)
Description: as §2

in vitro = in vitro ADME, mouse; conditions: mouse plasma, 37 °C; read-out: In vitro metabolic stability t1/2 (min) in plasma
Description: The mouse plasma was purchased from Charles River and stored at −20 °C. The stock solution of the test compound dissolved in DMSO (50 mM) was prepared and diluted to obtain a working solution at the concentration of 0.2 mM. The working solution of the control compound, i.e. propantheline, was similarly prepared (0.2 mM). Terfenadine (5 ng/mL) and tolbutamide (10 ng/mL) dissolved in acetonitrile were used as two quenching solutions.
The mouse plasma was pre-warmed at 37 °C for 15 min. The working solution of the test/control compound (2 µL) was then added to the mouse plasma (398 µL) in a 96-well plate. Next, 30 µL of the reaction mixture was sampled and moved to 300 µL of quenching solutions at each time point: 0, 5, 15, 30, 60, and 120 min for the control compound and 0, 15, 30, 60, and 120 min for the test compound. When the sampling was done, each sample was centrifuged at 4000 rpm at 4 °C for 15 min. Then, 100 µL of the supernatant was removed and mixed with 100 µL of distilled water for LC-MS/MS analysis with Shimadzu HPLC system and the AB Sciex API 4000 QTRAP instrument. The remaining compound (%) after incubation in plasma versus the incubation time was plotted. The half-life (t1/2) value of the compound was determined via linear regression from the plot.

[6] = Mouse microsomal stability assay; type: in vitro ADME; conditions: pH 7.4; mouse liver microsomes, NADPH; read-out: In vitro metabolic stability t1/2 (min) in liver microsomes
Description: The mouse liver microsomes were purchased from BioreclamationIVT and stored at −80 °C. The working solutions (0.2 mM) of the control compound, i.e. dextromethorphan, and the test compound dissolved in DMSO were prepared. Terfenadine (5 ng/mL) and tolbutamide (10 ng/mL) dissolved in acetonitrile were used as two quenching solutions. NADPH was dissolved in the phosphate buffer (50 mM K2HPO4, pH 7.4) at 5 mM. The mouse liver microsomes were thawed at 37 °C. The concentration of the stock solution was 20 mg/mL. The working solution (0.629 mg/mL) was prepared by dilution in phosphate buffer.
The working solution of the control/test compound (1.5 µL) was mixed with the liver microsome working solution (238.5 µL) in a 96-well plate and pre-incubated at 37 °C for 5 min. The 5 mM NADPH working solution (60 µL) was added to the solution to initiate the metabolic reaction. At each time point (0, 5, 15, 30, and 60 for the control/test compound), 30 µL of the reaction mixture was sampled and moved to 300 µL of quenching solutions. When the sampling was done, each sample was centrifuged at 4000 rpm at 4 °C for 15 min. The supernatant was analysed with the same HPLC system as the plasma stability assay. The residues (%) of the test/control compound along with the incubation time were calculated based on which the half-life (t1/2) value was determined.

For `CCc1[nH]c(C(=O)NC2CCN(c3nnc(C(C)(C)O)s3)CC2OC)nc1Cl` (stereo not drawn) [DS-2969b], the “S. aureus DNA gyrase IC50” value (S. aureus DNA gyrase) is listed as 0.14 µg/mL.

For `CN[C@H](CC(C)C)C(=O)N[C@H]1C(=O)N[C@@H](CC(N)=O)C(=O)N[C@H]2C(=O)N[C@H]3C(=O)N[C@H](C(=O)N[C@H](C(=O)O)c4cc(O)cc(O)c4-c4cc3ccc4O)[C@H](O)c3ccc(c(Cl)c3)Oc3cc2cc(c3O[C@@H]2O[C@H](CO)[C@@H](O)[C@H](O)[C@H]2O[C@H]2C[C@](C)(N)[C@H](O)[C@H](C)O2)Oc2ccc(cc2Cl)[C@H]1O` [Vancomycin, reference compound], the MIC ([1]; Staphylococcus aureus, ATCC 700699 / VISA) was 4 µg/mL (≈ 2.76 µM), the MIC ([1]; Staphylococcus aureus, VISA) was 4 µg/mL (≈ 2.76 µM) and the “MIC” value ([1]; VISA HIP 5827) was 4.0 µg/mL (≈ 2.76 µM). The MIC (MRSA/VISA strains) was 0.5 to 4 µg/mL (≈ 0.345 to 2.76 µM), the MIC ([2]; ATCC 29213 / BAA-1708 / BAA-976 / MSSA, read-out: MIC over the five MSSA isolates, ATCC 29213, 15, 18-3, BAA976, BAA1708, span over isolates) was 0.5 to 1 µg/mL (≈ 0.345 to 0.69 µM) and the MIC ([2]; ATCC 29213 / MSSA, MSSA ATCC 29213) was 1 µg/mL (≈ 0.69 µM). For the same compound, the MIC ([2]; BAA-976 / MSSA, MSSA BAA976) was 0.5 µg/mL (≈ 0.345 µM), the MIC ([2]; BAA-1708 / MSSA, MSSA BAA1708) was 1 µg/mL (≈ 0.69 µM) and the MIC ([2]; MSSA, MSSA 15) was 1 µg/mL (≈ 0.69 µM). The MIC ([2]; MSSA, MSSA 18-3) was 0.5 µg/mL (≈ 0.345 µM), the MIC ([3]; ATCC 33591 / MRSA) was 2 µg/mL (≈ 1.38 µM) and the MIC ([3]; ATCC 43300 / MRSA) was 1 µg/mL (≈ 0.69 µM). For the same compound, the MIC ([3]; MRSA) was 0.5 µg/mL (≈ 0.345 µM).

For `CC(=O)O[C@H]1C(=O)[C@@]2(C)[C@H]([C@H](OC(=O)c3ccccc3)[C@]3(O)C[C@H](OC(=O)[C@H](O)[C@@H](NC(=O)c4ccccc4)c4ccccc4)C(C)=C1C3(C)C)[C@]1(OC(C)=O)CO[C@@H]1C[C@@H]2O` [Paclitaxel, reference compound], the CC50 at 72 h [4] was 12.7 nM and the CC50 at 72 h [5] was 1.7 nM.

Work on `CC(C)[N+](C)(CCOC(=O)C1c2ccccc2Oc2ccccc21)C(C)C` [propantheline, reference compound] yielded a half-life at 1 µM (in vitro) of 66.3 min.

Work on `COc1ccc2c(c1)[C@]13CCCC[C@@H]1[C@H](C2)N(C)CC3` [dextromethorphan, reference compound] yielded a half-life at 1 µM [6] of 16 min.
